From BindingDB's records for PubMed 1646322 (Mayo Clinic, 1991) come the findings set out here.

Molecules are shown by their SMILES. pKi: −log10 of the molar value.

Assay [1] addresses T1, Muscarinic acetylcholine receptor M4 (Rattus norvegicus, UniProt P08485).
T1 sequence (P08485 whole entry): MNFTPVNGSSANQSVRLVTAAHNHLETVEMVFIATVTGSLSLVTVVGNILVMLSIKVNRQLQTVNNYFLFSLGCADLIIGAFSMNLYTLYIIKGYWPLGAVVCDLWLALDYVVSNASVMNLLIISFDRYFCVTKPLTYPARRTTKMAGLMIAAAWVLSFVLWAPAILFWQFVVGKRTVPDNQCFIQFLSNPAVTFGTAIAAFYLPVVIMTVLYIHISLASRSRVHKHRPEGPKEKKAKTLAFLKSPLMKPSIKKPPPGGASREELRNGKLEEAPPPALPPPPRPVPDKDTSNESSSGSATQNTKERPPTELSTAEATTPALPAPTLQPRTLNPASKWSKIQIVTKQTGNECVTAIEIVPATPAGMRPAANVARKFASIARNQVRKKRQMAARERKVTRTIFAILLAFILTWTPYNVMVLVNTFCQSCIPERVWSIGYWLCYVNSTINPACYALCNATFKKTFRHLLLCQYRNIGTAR

Assay [2] concerns the target T2, Muscarinic acetylcholine receptor M1 (Rattus norvegicus, UniProt P08482).
T2 sequence (P08482 whole entry): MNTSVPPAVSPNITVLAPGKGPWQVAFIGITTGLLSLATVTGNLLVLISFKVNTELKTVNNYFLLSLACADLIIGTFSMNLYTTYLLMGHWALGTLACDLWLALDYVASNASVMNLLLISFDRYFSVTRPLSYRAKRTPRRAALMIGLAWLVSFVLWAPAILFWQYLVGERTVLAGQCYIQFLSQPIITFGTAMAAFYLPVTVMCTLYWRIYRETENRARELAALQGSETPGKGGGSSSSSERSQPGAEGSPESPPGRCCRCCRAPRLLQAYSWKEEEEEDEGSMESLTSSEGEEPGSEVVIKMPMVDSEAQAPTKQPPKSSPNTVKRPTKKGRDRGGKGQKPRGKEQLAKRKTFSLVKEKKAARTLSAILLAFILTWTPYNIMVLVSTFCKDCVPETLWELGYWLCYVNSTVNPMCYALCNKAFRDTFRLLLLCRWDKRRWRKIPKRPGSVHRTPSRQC

Compound `C[N+]1(C)CCC(OC(=O)C(c2ccccc2)c2ccccc2)CC1` showed a pKi in assay [1] of 8.85. Consider `CCN(CC)CC1CCCCN1CC(=O)N1c2ccccc2C(=O)Nc2cccnc21` (stereo not drawn) [(AF-DX 116) 11-[2-(2-Diethylaminomethyl-piperidin-1-yl)-acetyl]-5,11-dihydro-benzo[e]pyrido[3,2-b][1,4]diazepin-6-one], for which the pKi in assay [1] was 6.21; in assay [2] it was 5.92.

Turning to `O[Si](CCCN1CCCCC1)(c1ccccc1)C1CCCCC1` (stereo not drawn) [HHSiD], the pKi was 7.33 in assay [1] and 7.22 in assay [2]. In turn, `COc1ccccc1CNCCCCCCNCCCCCCCCNCCCCCCNCc1ccccc1OC` [METHOCTRAMINE] had a pKi in assay [1] of 6.39. With `CCN(CCCC(=O)C1CCCCC1)C(C)Cc1ccc(OC)cc1` (stereo not drawn) [NSC_42470], the pKi in assay [1] was 8.11; in assay [2] it was 8.23.
